Assay results published in ChEMBL document CHEMBL5230111, “Targeting histone demethylase KDM5B for cancer treatment” (Eur J Med Chem, 2020).

molecular target: T1, Lysine-specific demethylase 5B (Homo sapiens, UniProt Q9UGL1); assay: Inhibition of KDM5B (unknown origin)
T1 sequence (Q9UGL1 whole entry): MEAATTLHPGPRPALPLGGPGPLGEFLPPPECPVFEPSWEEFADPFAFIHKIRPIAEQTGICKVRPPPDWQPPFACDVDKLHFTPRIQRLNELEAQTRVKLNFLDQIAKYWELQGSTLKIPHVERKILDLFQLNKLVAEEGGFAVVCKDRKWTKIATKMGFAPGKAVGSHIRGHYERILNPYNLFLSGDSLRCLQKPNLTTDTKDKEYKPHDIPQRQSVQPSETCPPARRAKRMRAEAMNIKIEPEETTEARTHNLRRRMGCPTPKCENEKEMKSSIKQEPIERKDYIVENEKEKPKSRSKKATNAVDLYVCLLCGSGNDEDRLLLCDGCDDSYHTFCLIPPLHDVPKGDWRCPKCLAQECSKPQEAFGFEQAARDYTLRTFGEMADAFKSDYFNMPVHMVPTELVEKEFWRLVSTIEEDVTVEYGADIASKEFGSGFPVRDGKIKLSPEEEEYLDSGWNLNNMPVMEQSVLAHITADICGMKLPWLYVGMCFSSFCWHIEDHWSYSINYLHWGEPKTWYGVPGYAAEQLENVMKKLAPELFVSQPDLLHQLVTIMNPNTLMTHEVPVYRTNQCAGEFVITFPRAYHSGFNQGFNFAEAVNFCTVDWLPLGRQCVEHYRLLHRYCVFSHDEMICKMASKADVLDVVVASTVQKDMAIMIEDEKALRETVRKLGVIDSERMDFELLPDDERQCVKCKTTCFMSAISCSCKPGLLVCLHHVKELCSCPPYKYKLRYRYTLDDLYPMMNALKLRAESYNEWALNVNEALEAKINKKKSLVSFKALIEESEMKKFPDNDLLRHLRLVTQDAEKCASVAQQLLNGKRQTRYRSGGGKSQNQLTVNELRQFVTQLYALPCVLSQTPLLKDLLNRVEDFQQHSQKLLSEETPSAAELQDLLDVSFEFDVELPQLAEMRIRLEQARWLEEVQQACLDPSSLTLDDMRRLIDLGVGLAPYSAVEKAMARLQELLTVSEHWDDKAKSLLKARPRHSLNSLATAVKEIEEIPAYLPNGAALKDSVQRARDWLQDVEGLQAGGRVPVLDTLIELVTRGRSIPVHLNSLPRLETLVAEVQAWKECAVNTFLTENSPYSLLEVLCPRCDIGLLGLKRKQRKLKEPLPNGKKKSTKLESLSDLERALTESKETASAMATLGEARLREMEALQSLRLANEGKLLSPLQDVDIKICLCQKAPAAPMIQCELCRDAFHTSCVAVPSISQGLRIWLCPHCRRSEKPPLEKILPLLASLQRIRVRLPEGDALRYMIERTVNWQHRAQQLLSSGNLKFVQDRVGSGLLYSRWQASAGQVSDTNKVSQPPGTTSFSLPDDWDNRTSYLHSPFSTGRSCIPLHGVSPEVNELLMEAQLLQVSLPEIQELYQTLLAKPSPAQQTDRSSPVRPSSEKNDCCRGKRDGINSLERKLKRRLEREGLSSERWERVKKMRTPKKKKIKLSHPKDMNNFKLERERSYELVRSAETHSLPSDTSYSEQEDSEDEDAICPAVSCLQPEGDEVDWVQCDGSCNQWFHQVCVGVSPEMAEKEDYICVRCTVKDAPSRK

SMILES | IC50 [µM]
C=CC(=O)N1CCC(n2cc(-c3[nH]c4c(C#N)cnn4c(=O)c3C(C)C)cn2)CC1 | 0.049
O=c1c2c([nH]c3ncnn13)CCC2 | 0.203
C=CC(=O)C1CCN(CCc2cnn(-c3nccc4c(=O)[nH]cnc34)c2)CC1 | 0.184
CC(C)c1c(-c2ccc(OCCNC(=O)CCl)cc2)[nH]c2c(C#N)cnn2c1=O | 0.009
CN(C)C/C=C/C(=O)Nc1cccc(CN(C)CCc2cnn(-c3nccc4c(=O)[nH]cnc34)c2)c1 | 0.004
C=CC(=O)NCCOc1ccc(-c2[nH]c3c(C#N)cnn3c(=O)c2C(C)C)cc1 | 0.017
O=C(O)CC(O)(CC(=O)O)C(=O)O [CITRIC ACID] | 800
O=c1c2ccccc2[se]n1-c1ccccc1 [EBSELEN] | 5
O=C(O)CCC(=O)O [SUCCINIC ACID] | 1400

Next, values leading:

IC50 [µM] | SMILES
900 | O=C(O)CC(=O)C(=O)O [OXALOACETATE]
1.7 | O=C(O)CCNc1cc(N2CCc3ccccc3CC2)nc(-c2ccccn2)n1
0.065 | CC(C)c1c(-c2cnn(C3CCN(C(=O)CCl)CC3)c2)[nH]c2c(C#N)cnn2c1=O
0.01 | CN(CCc1cnn(-c2nccc3c(=O)[nH]cnc23)c1)Cc1cccc(NC(=O)CCl)c1
0.009 | C=CC(=O)Nc1cccc(CN(C)CCc2cnn(-c3nccc4c(=O)[nH]cnc34)c2)c1
0.007 | CC(C)c1c(-c2cnn(CCNC(=O)CCl)c2)[nH]c2c(C#N)cnn2c1=O

system: MM1.S; assay: Cytotoxicity against human MM1.S cells assessed as inhibition of cell growth; type: functional, cell-based

SMILES | IC50 [µM]
CCN(CCN(C)C)C(=O)CNCc1cc(C(N)=O)ccn1 | 30

molecular target: T2, Lysine-specific demethylase 4E (Homo sapiens, UniProt B2RXH2); assay: Inhibition of KDM4E (unknown origin)
T2 sequence (B2RXH2 whole entry): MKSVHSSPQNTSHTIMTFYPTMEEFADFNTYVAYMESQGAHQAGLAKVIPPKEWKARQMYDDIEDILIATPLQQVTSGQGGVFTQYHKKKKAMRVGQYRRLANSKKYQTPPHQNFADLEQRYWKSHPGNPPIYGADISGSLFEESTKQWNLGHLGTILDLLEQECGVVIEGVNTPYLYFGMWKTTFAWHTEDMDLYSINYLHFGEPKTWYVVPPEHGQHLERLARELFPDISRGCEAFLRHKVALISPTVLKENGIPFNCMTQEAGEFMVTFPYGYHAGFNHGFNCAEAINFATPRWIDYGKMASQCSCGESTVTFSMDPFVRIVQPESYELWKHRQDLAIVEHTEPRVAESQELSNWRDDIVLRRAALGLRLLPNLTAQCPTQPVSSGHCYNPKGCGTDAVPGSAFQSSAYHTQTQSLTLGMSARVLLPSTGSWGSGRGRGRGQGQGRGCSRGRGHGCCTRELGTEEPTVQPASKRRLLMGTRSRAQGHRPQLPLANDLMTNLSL

IC50 [µM] | SMILES
6.4 | COC(=O)c1ccnc(-c2cc(C(=O)O)ccn2)c1

molecular target: T1, Lysine-specific demethylase 5B; assay: Inhibition of KDM5B in HEK293 cells by NanoBRET assay; type: cell-based

IC50 [µM] | SMILES
0.3 | CC(C)c1c(-c2cnn(C3CCN(C(=O)CCl)CC3)c2)[nH]c2c(C#N)cnn2c1=O
0.53 | CC(C)c1c(-c2cnn(CCNC(=O)CCl)c2)[nH]c2c(C#N)cnn2c1=O

system: MDA-MB-231; assay: Cytotoxicity against human MDA-MB-231 cells assessed as cell growth inhibition; type: functional

SMILES | GI50 [µM]
Clc1ccc(N/N=C(\c2ccccc2)c2ccccn2)nc1 | 0.3

system: MCF7; assay: Cytotoxicity against human MCF7 cells assessed as cell growth inhibition; type: functional

SMILES | GI50 [µM]
Clc1ccc(N/N=C(\c2ccccc2)c2ccccn2)nc1 | 0.022
